Test results from PubChem BioAssay (NCI).
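Protocol summary: plate cells (96-well), add compound at 5 concentrations, incubate 48 h, interpolate endpoints linearly. GI50 = concentration required for 50% inhibition of growth. TGI is the concentration that stops growth completely.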

Columns and labels:
Assay in all cases: NCI anticancer screen, dose series, 48 h
786-0 renal = tested on: 786-0 renal
A498 renal = tested on: A498 renal
A549 NSCLC = tested on: A549 NSCLC
ACHN renal = tested on: ACHN renal
BT-549 breast = tested on: BT-549 breast
CAKI-1 renal = tested on: CAKI-1 renal
CCRF-CEM leukemia = tested on: CCRF-CEM leukemia
COLO 205 colon = tested on: COLO 205 colon
DU-145 prostate = tested on: DU-145 prostate
EKVX NSCLC = tested on: EKVX NSCLC
HCC-2998 colon = tested on: HCC-2998 colon
HCT-116 colon = tested on: HCT-116 colon
HCT-15 colon = tested on: HCT-15 colon
HL-60(TB) leukemia = tested on: HL-60(TB) leukemia
HOP-62 NSCLC = tested on: HOP-62 NSCLC
HOP-92 NSCLC = tested on: HOP-92 NSCLC
HS 578T breast = tested on: HS 578T breast
HT29 colon = tested on: HT29 colon
IGROV1 ovarian = tested on: IGROV1 ovarian
K-562 leukemia = tested on: K-562 leukemia
KM12 colon = tested on: KM12 colon
LOX IMVI melanoma = tested on: LOX IMVI melanoma
M14 melanoma = tested on: M14 melanoma
MALME-3M melanoma = tested on: MALME-3M melanoma
MCF7 breast = tested on: MCF7 breast
MDA-MB-231 breast = tested on: MDA-MB-231 breast
MDA-MB-435 = tested on: MDA-MB-435
MOLT-4 leukemia = tested on: MOLT-4 leukemia
NCI-H226 lung = tested on: NCI-H226 lung
NCI-H23 lung = tested on: NCI-H23 lung
NCI-H460 lung = tested on: NCI-H460 lung
NCI-H522 lung = tested on: NCI-H522 lung
NCI/ADR-RES ovarian = tested on: NCI/ADR-RES ovarian
OVCAR-3 ovarian = tested on: OVCAR-3 ovarian
OVCAR-4 ovarian = tested on: OVCAR-4 ovarian
OVCAR-5 ovarian = tested on: OVCAR-5 ovarian
OVCAR-8 ovarian = tested on: OVCAR-8 ovarian
PC-3 prostate = tested on: PC-3 prostate
RPMI-8226 leukemia = tested on: RPMI-8226 leukemia
RXF 393 renal = tested on: RXF 393 renal
SF-268 CNS = tested on: SF-268 CNS
SF-295 CNS = tested on: SF-295 CNS
SF-539 CNS = tested on: SF-539 CNS
SK-MEL-2 melanoma = tested on: SK-MEL-2 melanoma
SK-MEL-28 melanoma = tested on: SK-MEL-28 melanoma
SK-MEL-5 melanoma = tested on: SK-MEL-5 melanoma
SK-OV-3 ovarian = tested on: SK-OV-3 ovarian
SN12C renal = tested on: SN12C renal
SNB-19 CNS = tested on: SNB-19 CNS
SNB-75 CNS = tested on: SNB-75 CNS
SR leukemia = tested on: SR leukemia
SW-620 colon = tested on: SW-620 colon
TK-10 renal = tested on: TK-10 renal
U251 CNS = tested on: U251 CNS
UACC-257 melanoma = tested on: UACC-257 melanoma
UACC-62 melanoma = tested on: UACC-62 melanoma
UO-31 renal = tested on: UO-31 renal

## COC(=O)[C@@H](C[C@H](Cc1ccccc1)NC(=O)c1csc([C@@H](C[C@H](C(C)C)N(C)C(=O)[C@@H](NC(=O)[C@H]2CCCCN2C)C(C)C)OC(C)=O)n1)NC(=O)OCc1ccccc1
786-0 renal
  GI50: 1.65 nM
  TGI: > 8330 nM
A498 renal
  GI50: 1.1 nM
  TGI: 10.4 nM
A549 NSCLC
  GI50: 1.86 nM
  TGI: > 8330 nM
ACHN renal
  GI50: 2.93 nM
  TGI: > 8330 nM
BT-549 breast
  GI50: 1.49 nM
  TGI: 83.9 nM
CAKI-1 renal
  GI50: 1.66 nM
  TGI: > 8330 nM
CCRF-CEM leukemia
  GI50: < 0.833 nM
  TGI: > 7920 nM
COLO 205 colon
  GI50: < 0.833 nM
DU-145 prostate
  GI50: < 0.833 nM
EKVX NSCLC
  GI50: 17.5 nM
  TGI: > 8330 nM
HCC-2998 colon
  GI50: < 0.833 nM
  TGI: > 2890 nM
HCT-116 colon
  GI50: < 0.833 nM
HCT-15 colon
  GI50: 4.54 nM
  TGI: > 8330 nM
HL-60(TB) leukemia
  GI50: < 0.833 nM
  TGI: 1.62 nM
HOP-62 NSCLC
  GI50: 1.12 nM
  TGI: > 8330 nM
HOP-92 NSCLC
  GI50: 2.36 nM
  TGI: > 8330 nM
HS 578T breast
  GI50: < 0.833 nM
  TGI: > 3550 nM
HT29 colon
  GI50: < 0.833 nM
  TGI: > 8330 nM
IGROV1 ovarian
  GI50: < 0.833 nM
  TGI: > 7680 nM
K-562 leukemia
  GI50: < 0.833 nM
  TGI: > 3180 nM
KM12 colon
  GI50: < 0.833 nM
  TGI: > 8330 nM
LOX IMVI melanoma
  GI50: < 0.833 nM
  TGI: > 8330 nM
M14 melanoma
  GI50: < 0.833 nM
  TGI: 412 nM
MALME-3M melanoma
  GI50: < 0.833 nM
  TGI: 2680 nM
MCF7 breast
  GI50: < 0.833 nM
  TGI: > 8330 nM
MDA-MB-231 breast
  GI50: 1.31 nM
  TGI: > 6730 nM
MDA-MB-435
  GI50: < 0.833 nM
  TGI: < 0.833 nM
MOLT-4 leukemia
  GI50: < 0.833 nM
  TGI: > 8330 nM
NCI-H226 lung
  GI50: 1.68 nM
  TGI: 136 nM
NCI-H23 lung
  GI50: 1.19 nM
  TGI: > 8330 nM
NCI-H460 lung
  GI50: < 0.833 nM
  TGI: > 8330 nM
NCI-H522 lung
  GI50: < 0.833 nM
  TGI: 40 nM
NCI/ADR-RES ovarian
  GI50: 43.9 nM
  TGI: > 1690 nM
OVCAR-3 ovarian
  GI50: < 0.833 nM
OVCAR-4 ovarian
  GI50: 7.17 nM
  TGI: > 8330 nM
OVCAR-5 ovarian
  GI50: 5.38 nM
  TGI: > 8330 nM
OVCAR-8 ovarian
  GI50: < 0.833 nM
  TGI: > 8330 nM
PC-3 prostate
  GI50: < 0.833 nM
  TGI: > 8330 nM
RPMI-8226 leukemia
  GI50: < 0.833 nM
  TGI: 2490 nM
RXF 393 renal
  GI50: 0.948 nM
  TGI: > 8330 nM
SF-268 CNS
  GI50: 1.37 nM
  TGI: > 8330 nM
SF-295 CNS
  GI50: 1.33 nM
  TGI: > 8330 nM
SF-539 CNS
  GI50: < 0.833 nM
  TGI: 3.85 nM
SK-MEL-2 melanoma
  GI50: < 0.833 nM
  TGI: 3450 nM
SK-MEL-28 melanoma
  GI50: 906 nM
  TGI: 2390 nM
SK-MEL-5 melanoma
  GI50: < 0.833 nM
  TGI: 38.6 nM
SK-OV-3 ovarian
  GI50: 2.65 nM
  TGI: > 8330 nM
SN12C renal
  GI50: 1.46 nM
  TGI: > 8330 nM
SNB-19 CNS
  GI50: < 0.833 nM
  TGI: > 8330 nM
SNB-75 CNS
  GI50: < 0.833 nM
  TGI: > 8330 nM
SR leukemia
  GI50: < 0.833 nM
  TGI: > 3400 nM
SW-620 colon
  GI50: < 0.833 nM
  TGI: > 8330 nM
TK-10 renal
  GI50: 107 nM
  TGI: > 8330 nM
U251 CNS
  GI50: < 0.833 nM
  TGI: > 2650 nM
UACC-257 melanoma
  GI50: 30.9 nM
  TGI: 2590 nM
UACC-62 melanoma
  GI50: < 0.833 nM
  TGI: > 8330 nM
UO-31 renal
  GI50: 11.3 nM
  TGI: > 8330 nM
